# Reference: US20080154102A1, “Intraoperative imaging methods” (priority 2006, published 2008)
# Entries after “also recorded” stand apart in the source; their conditions may differ.
# Key:
# [1] = cited from earlier work
# Absorbance spectrometry = assay type: physicochemical; conditions: for Peak Absorbance in PBS: Table 2
# Method: (§1) Absorbance spectrometry was performed with a 1-cm path length quartz cuvette in a USB2000 fiber-optic spectrometer (Ocean Optics, Dunedin, Fla.). Fluorescence spectrometry was performed with a 1-cm path length, 1.5 mL disposable methacrylate cuvette (Fisher Scientific, Hampton, N.H.) in a HR2000 fiber-optic spectrometer, and CUV-ALL-UV four-way cuvette holder (Ocean Optics), using a 655 nm laser diode light source (OPCOM O.E. Inc., Xiamen, China) with maximum output less than 5 mW. Data acquisition was performed with a computer using an OOI-Base32 spectrometer operating software package (Ocean Optics). The spectral range of the USB2000-FL spectrometer was from 350 to 1000 nm with spectral resolution of 7.6 nm, and that of the HR2000 spectrometer was from 200 to 1100 nm with a spectral resolution of 6.7 nm.
# [2] = Fluorescence spectrometry and fluorescence quantum yield; assay type: physicochemical; conditions: for Peak Fluorescence in PBS / Quantum Yield in PBS: Table 2
# Method: as §1
# Fluorescence intensity was measured in each solvent (PBS, FBS, and methanol) at each concentration of the dye to determine the effect of the methylene blue concentration and solvents on total fluorescence yield. Fluorescence quantum yields of methylene blue in PBS, FBS, and methanol were calculated using oxazine725 in ethylene glycol (quantum yield: 19%) as a calibration standard, under the conditions of matched absorbance of methylene blue in each solvent.
# [3] = Excretion to bile / clearance after injection; assay type: in vivo
# common bile duct [4] = assay: Cholangiographic imaging with ICG, IR-786 and CW800-CA in rats; assay type: in vivo
# Method: 50 μL of 100 μM IR-786 or CW800-CA (15 μg/kg), or 1 mM ICG (150 μg/kg), was injected into portal vein in anesthetized rats. A simultaneous color video/NIR fluorescence intraoperative imaging system was employed for quantification of NIR fluorescence images. In another 32 rats, bile duct was visualized by intravenous (N=16) or portal vein injection (N=16) of 50 μL of CW800-CA at 10, 20, 50 and 100 μM to quantify the best concentration for bile duct imaging. Fluorescence intensities of bile duct, liver (right lobe), and pancreas were measured at 3, 5, 10, 20, and 30 min following injection.
# thoracic duct = assay: Thoracic duct visualization in the rat model; assay type: in vivo; conditions: 50 μL of 10 μM into mesenteric lymph node, 5 minutes
# Method: Additional experiments on thoracic duct visualization in the rat model were also performed using other NIR fluorescent agents.
# [5] = test system: perforating arteries and veins; assay: NIR imaging of skin perforating vessels for flap surgery; assay type: in vivo, Yorkshire pig; conditions: 35 kg pig, 0.5 mg (14 μg/kg) intravenously
# Method: To evaluate the usefulness of NIR agents for such methods, 0.5 mg (14 μg/kg) indocyanine green (ICG) was injected intravenously into a 35 kg Yorkshire pig, and the skin was imaged as described herein.
# [6] = test system: common bile duct, vasculature, coronary artery, myocardium; assay: Multi-wavelength fluorescence imaging with MB and ICG; assay type: in vivo, pigs; conditions: pig
# Method: Therefore, MB was used to visualize CBD in an anesthetized pig, while ICG was used to visualize vasculature.
# To evaluate the possibility of multi-wavelength fluorescent imaging, ICG and methylene blue were used.
# 1 mg/kg methylene blue IV injection was followed 30 min after by 0.03 mg/kg ICG IV injection. […] NIR camera exposure time was 100 msec.
# Next, one of the diagonal branches of the coronary artery (D2) was clamped (white arrow), and then 1 mg/kg of methylene blue was injected intravenously; see the second row of images. Just after releasing the clamp, 0.03 mg/kg ICG was injected intravenously. […] The right-most image in the second row was created by merging the image of the coronary arteriography using methylene blue at clamping D2 and the image using ICG after declamping D2.
# common bile duct [7] = assay: Cholangiographic imaging with CW800-CA in pigs; assay type: in vivo; conditions: for detection of beads inserted into CBD: 5 mL of 50 μM intravenously, beads 2.5 and 3.5 mm
# Method: Based on the results obtained in rats, CW800-CA was chosen as the contrast agent for a large animal model approaching the size of human. In 7 anesthetized pigs, 5 mL of 100 μM CW800-CA (15 μg/kg total) was injected into portal vein (N=3), or 5 mL of 50 μM (N=2) or 100 μM (N=2) of CW800-CA (7.5, and 15 μg/kg total, respectively) were injected intravenously.
# Beads of 2.5 or 3.5 mm in diameter were inserted into common bile duct via papilla vateri by duodenostomy (N=2) to simulate blockage of the CBD.
# ureters = assay: Ureteral mapping in rats; assay type: in vivo
# Method: In rats, ureters were visualized by intravenous injection of 50 μL of CW800 CA at 10, 20, 50 and 100 μM to quantify the best concentration for […]. Fluorescence intensities of ureters, kidney, and abdominal wall were measured at 3, 5, 10, 20, and 30 min following injection.
# [8] = Metabolism of CW800-CA, HPLC/mass spectrometry of urine samples; assay type: in vivo, pigs
# Excerpt: As described herein, ureter visualization can usually be obtained rapidly, even in a few minutes following injection. […] To clarify the point, an HPLC/mass spectrometry (using electrospray/time-of-flight (ES-TOF) method has been made.
# Urine samples were collected from pigs (N=5), and analyzed. The dye usually can be pinpointed with a fluorescence detector equipped with ES-TOF mass spectrometry. Urine samples were first passed over a 6,000 Da cutoff gel-filtration column to remove contaminating proteins, and eluate less than 6,000 Da was analyzed on a C18 column. Buffer A was water, BioPlus (American Bioanalytical, Natick, Mass.) and Buffer B was acetonitrile. Using a gradient of 0 to 50% Buffer B over 30 min, urine samples were resolved on a 4.6×150 mm Symmetry C18 column (Waters) at a flow rate of 1 ml per minute with eluate fed into a Waters LCT ES-TOF mass spectrometer. Ion mode was set to electrospray negative (ES−), and cone and capillary voltages were set at 30 and 3000 (V), respectively. Desolvation and source temperature were set at 350, 140 (° C.), respectively. Data were analyzed with Masslynx (Waters) software.
# [9] = Fluorescence spectrometry and fluorescence quantum yield; assay type: physicochemical
# [10] = rats, portal vein injection, listed as CW800CA
structure (smiles),measurement,setting,value
CCN(CC)c1ccc2nc3ccc(=[N+](CC)CC)cc-3oc2c1.[O-][Cl+3]([O-])([O-])[O-] [oxazine725],quantum yield of calibration standard,[1]; in ethylene glycol,19%
CN1C(=CC=C2CCCC(C=CC3=[N+](C)c4ccccc4C3(C)C)=C2Cl)C(C)(C)c2ccccc21.[O-][Cl+3]([O-])([O-])[O-] [IR-786],Peak Absorbance in PBS,Absorbance spectrometry; in PBS,768 nm
same,Peak Fluorescence in PBS,[2]; in PBS,803 nm
same,Quantum Yield in PBS,[2]; in PBS,3.3%
same,clearance after intravenous injection,[3],"rapidly extracted into many tissues in the body, especially the liver, and is inefficiently transported into bile"
same,dye stacking to the liver,"common bile duct [4]; rats, portal vein injection",significant dye stacking to the liver
"CC1(C)C(/C=C/C=C/C=C/C=C2\N(CCCCS(=O)(=O)O)c3ccc4ccccc4c3C2(C)C)=[N+](CCCCS(=O)(=O)[O-])c2ccc3ccccc3c21 [ICG, indocyanine green]","Excitation Wavelength Maximum, (FBS)",Absorbance spectrometry; in FBS,800 nm
same,"Molar Extinction Coefficient, (FBS)",Absorbance spectrometry; in FBS,"168,000 M^−1cm^−1"
same,molar extinction coefficient in FBS,"Absorbance spectrometry; in FBS, in M-1cm-1 (unit assumed)","168,000"
same,"Excitation Wavelength Maximum, PBS",Absorbance spectrometry; in PBS,779 nm
same,Peak Absorbance in PBS,Absorbance spectrometry; in PBS,779 nm
same,"Emission Wavelength Maximum, (FBS)",[2]; in FBS,811 nm
same,"Fluorescence Quantum Yield, (FBS)",[2]; in FBS,9%
same,ICG fluorescence relative to methylene blue fluorescence,"[2]; in FBS, from extinction coefficient and quantum yield",about 8 times
same,"Emission Wavelength Maximum, PBS",[2]; in PBS,806 nm
same,"Fluorescence Quantum Yield, PBS",[2]; in PBS,1%
same,Peak Fluorescence in PBS,[2]; in PBS,806 nm
same,Quantum Yield in PBS,[2]; in PBS,1%
same,clearance after intravenous injection,[3],"rapidly cleared from the blood by the liver, but is only inefficiently transported into bile"
same,dye stacking to the liver,"common bile duct [4]; rats, portal vein injection",significant dye stacking to the liver
same,thoracic duct in the fluorescence image,thoracic duct,clearly visualized in the fluorescence image
same,identification of perforating arteries and veins,[5],can be identified
same,distribution in myocardium after arteriography,[6],evenly distributed over the entire myocardium
same,detection of diagonal branch D2 after releasing the clamp,[6]; 0.03 mg/kg intravenously,detected clearly
same,structure shown in two-channel NIR imaging,"[6]; ICG 800 nm, MB 700 nm",highlights blood vessels
CC1(C)C(/C=C/C2=C(Oc3ccc(S(=O)(=O)O)cc3)C(=C/C=C3/N(CCCCS(=O)(=O)O)c4ccc(S(=O)(=O)[O-])cc4C3(C)C)/CCC2)=[N+](CCCCCC(=O)O)c2ccc(S(=O)(=O)O)cc21 [CW800-CA],Peak Absorbance in PBS,Absorbance spectrometry; in PBS,775 nm
same,Peak Fluorescence in PBS,[2]; in PBS,796 nm
same,Quantum Yield in PBS,[2]; in PBS,9%
same,clearance after intravenous injection,[3],rapidly cleared by: 1) the liver and excreted into bile and 2) the kidneys and excreted into urine
same,selectivity among three contrast agents for bile duct imaging,common bile duct [4]; compared with ICG and IR-786,most selective
same,"dose required for CBD detection, portal vein injection",common bile duct [4]; portal vein injection,3 to 15 µg/kg
same,injected concentration showing the best SBR (CBD),"common bile duct [4]; rats, 50 μL (7.5 μg/kg)",50 µM
same,time of peak performance for CBD visualization,"common bile duct [4]; rats, every concentration",approximately 10 minutes
same,time at which CBD could be identified,"common bile duct [4]; rats, intravenous or portal injection",3 min
same,dye stacking to the liver,"common bile duct [4]; rats, portal vein injection",no significant dye stacking to the liver
same,"signal to background ratio (SBR) of CBD, in words","common bile duct [4]; rats, portal vein injection",excellent signal to background ratio
same,dye stacking to the liver,common bile duct [4]; [10],no dye stacking in the liver
same,"signal to background ratio (SBR) of CBD, in words",common bile duct [4]; [10],higher SBR than the other two
same,"dose required for CBD detection, systemic intravenous injection",common bile duct [4]; systemic intravenous injection,7.5 to 15 µg/kg
same,detection of beads inserted into CBD,common bile duct [7],detected completely in 2 of 2 pigs
same,detection of beads inserted into CBD,common bile duct [7]; listed as CW800CA,All beads could be detected perfectly in each trial
same,time until visualization of the CBD after dye injection,common bile duct [7]; portal vein or intravenous injection,7 to 10 min
same,thoracic duct in the fluorescence image,thoracic duct,clearly visualized in the fluorescence image
same,"visualization of ureters, in words",ureters; rat,excellent visualization of ureters
same,injected concentration showing the best SBR (ureter),"ureters; rats, 50 μL (7.5 μg/kg)",50 µM
same,time of peak performance for ureter visualization,"ureters; rats, every concentration",approximately 10 minutes
same,time at which ureters could be identified,"ureters; rats, intravenous injection",3 min
same,form in which the dye is excreted,[8]; HPLC/ES-TOF mass spectrometry,excreted into the bile in a substantially unmetabolized form; also recorded: excreted into bile as an unmetabolized form
same,fluorescence chromatograph after excretion into urine,[8]; HPLC/mass spectrometry,essentially a single peak with the expected mass spectrum
same,concentration above which significant quenching of fluorescence occurs,[1]; Ohnishi et al.,above 10 μM
same,emission of CW800-CA,[9],≈ 800 nm
